Assay results: patent US10774082B2, “Quinazoline compound” (Astellas Pharma Inc., priority 2017, dated 2020)
Read-outs that look alike come from different tables or passages of the source.

How the values were obtained:
[1] = molecular target: T1, KRAS G12C/SOS/c-Raf complex (Homo sapiens, UniProt P01116, G12C); assay: KRAS G12C/SOS/c-Raf complex formation inhibitory action (TR-FRET); type: biochemical; conditions: one hour at room temperature, read-out: IC50 (KRAS G12C/SOS/c-Raf complex formation inhibition)
T1 construct: Biotinylated AviTag-KRAS G12C (amino acid region 1-185, GDP)
In short: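 Biotin-AviTag KRAS G12C (1-185, GDP-bound) was mixed with compound (4,000 to 4 nM stock dilutions), SOS (564-1049), GST-c-Raf (51-131) and GTP in pH 7.4 HEPES/NaCl/MgCl2/Tween buffer for 1 h at room temperature. Complex formation was read by TR-FRET with Eu-streptavidin and ULight-anti-GST (ex 337 nm, em 620/665 nm).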

pERK in NCI-H1373 tumor = assay: Intratumoral pERK inhibitory action in NCI-H1373 tumor of nude mice (TR-FRET); type: in vivo, mouse; conditions: for inhibition at 3 mg/kg: read-out: pERK inhibition (%); for inhibition at 10 mg/kg / pERK inhibition (%): 10 mg/kg
Protocol: Evaluation of Intratumoral pERK Inhibitory Action
The phosphorylation amount of ERK in tumor sample after administration of test compound was examined by using pERK measurement kit (Advanced ERK phospho-T202/Y204 kit, Cisbio co., Ltd) through a TR-FRET method.
2.0 to 5.0×10^6 NCI-H1373 cells were prepared by using a solution in which an equivalent amount of Matrigel (Becton. Dickinson and Company) was added to PBS, were injected subcutaneously in a volume of 100 μL and planted to male nude mice of 4-5 weeks old (CAnN.Cg-Foxn 1 nu/CrlCrlj (nu/nu), Charles River Laboratories Japan, Inc.), and then the male nude mice were used for the test 15 to 26 days later. The test was conducted with three mice in a solvent group and three mice in a test compound administration group, and the test compounds were prepared by using a solvent such that the dosage thereof is as indicated in Table 4. The test compound was administered subcutaneously or orally. For subcutaneous administration, physiological saline supplemented with equimolar hydrochloric acid was used as a solvent. For oral administration, 6% 2-hydroxypropyl-β-cyclodextrin (Sigma-Aldrich Co. LLC) was used as a solvent. Six hours after the administration, a tumor was excised from a cervical dislocated mouse under isoflurane anesthesia, and a part thereof was put into a 2 mL Eppendorf tube and frozen using liquid nitrogen. The tumor sample was stored in a deep freezer at −80° C. until it was subjected to the pERK measurement test.
500 μL of lysis buffer 1 (Phospholysis buffer [Cisbio Co., Ltd], Complete EDTA free [Roche Diagnostics K.K.], Phosphatase inhibitor cocktail 2 [Sigma-Aldrich Co. LLC]) and one bead (5 mm YTZ ball [Nikkato Corp.]) was added to the tumor sample, and crushed (frequency 25/s for 3 minutes) by using Tissue Lyser II (QIAGEN GmbH). The whole amount was transferred to a new tube and centrifuged (20,400×g for 10 minutes, 4° C.) by using a micro amount high speed cooling centrifuge so as to obtain a tumor lysate which is a supernatant. Protein quantification of tumor lysate was performed by using a protein quantification kit (Pierce 660 nm Protein Assay Kit [Thermo Fisher Scientific Inc.]), and each sample was diluted by using lysis buffer 2 (Phosphorysis buffer [Cisbio Co., Ltd], Blocking Agent [attached to pERK measurement kit]) such that the amount thereof is to be a final concentration of 0.5 μg/μL.
Each of p-ERK1/2 Cryptate antibody and p-ERK1/2 d2 antibody (attached to pERK measurement kit) was diluted 20-fold with each detection buffer (attached to pERK measurement kit), and thereby a mixed solution of these two types of antibodies was prepared. A mixed solution of antibody was added to a 384 well plate at a volume of 4 μL/well. Further, tumor lysate diluted to 0.5 μg/μL was added at a volume of 16 μL/well. After standing at room temperature in a wet box for about 17 hours, the fluorescence intensity at 620 nm and 665 nm was measured under the condition of excitation wavelength of 337 nm by using EnVision 2103 Multilabel Reader (PerkinElmer Co., Ltd.).

[2] = Mus musculus, NCI-H1373, po, 6 h, Oral administration, tumor six hours after administration
[3] = Mus musculus, NCI-H1373, sc, 6 h, Subcutaneous administration, tumor six hours after administration
[4] = Mus musculus, NCI-H1373, sc, 6 h
[5] = Oral administration, tumor six hours after administration

T1 sequence (P01116 1-185 isoform P01116-2 G12C, one chain of several): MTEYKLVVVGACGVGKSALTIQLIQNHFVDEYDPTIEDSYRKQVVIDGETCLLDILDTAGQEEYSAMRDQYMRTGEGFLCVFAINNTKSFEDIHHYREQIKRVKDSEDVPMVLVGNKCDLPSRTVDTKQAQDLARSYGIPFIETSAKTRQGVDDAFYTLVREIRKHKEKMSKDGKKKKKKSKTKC

Row | SMILES | IC50 [1] [nM] | inhibition at 10 mg/kg (pERK in NCI-H1373 tumor; [2]) [%] | also measured
1 | C=CC(=O)N1CC2(CCN(c3nc(OC4CCN(C5CCOCC5)CC4)nc4c(OCC(F)(F)F)c(-c5c(C)ccc6[nH]ncc56)c(C=C)cc34)CC2)C1 (single isomer, unassigned) [Ex 39] | 14 | 43 | –
2 | C=CC(=O)N1CCN(c2nc(OC3CCN(C)CC3)nc3c(F)c(-c4c(C)ccc5[nH]ncc45)c(Cl)cc23)CC1 [Compound C, reference compound] | 68 | – | inhibition at 30 mg/kg (pERK in NCI-H1373 tumor; Mus musculus, NCI-H1373, sc, 6 h, Subcutaneous administration, 30 mg/kg, tumor six hours after administration): 54%
3 | C=CC(=O)N1CC2(CCN(c3nc(OC4CCN(C)CC4)nc4c(OCC)c(-c5c(C)ccc6[nH]ncc56)c(C5CC5)cc34)CC2)C1 [Ex 2] | 37 | – | inhibition at 1 mg/kg (pERK in NCI-H1373 tumor; [3]): 54%
4 | C=CC(=O)N1CC2(CCN(c3nc(OC4CCN(C)CC4)nc4c(OCC(F)F)c(-c5c(C)ccc6[nH]ncc56)c(C5CC5)cc34)CC2)C1 [Ex 3] | 29 | – | inhibition at 1 mg/kg (pERK in NCI-H1373 tumor; [3]): 57%
5 | C=CC(=O)N1CC2(CCN(c3nc(OC[C@@H]4CCCN4C)nc4c(OCC(F)F)c(-c5c(C)ccc6[nH]ncc56)c(C5CC5)cc34)CC2)C1 [Ex 4] | 35 | – | inhibition at 1 mg/kg (pERK in NCI-H1373 tumor; [3]): 58%
6 | C=CC(=O)N1CC2(CCN(c3nc(OC4CCN(CC)CC4)nc4c(OCC)c(-c5c(C)ccc6[nH]ncc56)c(C=C)cc34)CC2)C1 [Ex 7] | 33 | – | inhibition at 3 mg/kg (pERK in NCI-H1373 tumor; Mus musculus, NCI-H1373, sc, 6 h, Subcutaneous administration, 3 mg/kg, tumor six hours after administration): 59%
7 | C=CC(=O)N1CC2(CCN(c3nc(OC4CCN(C)CC4)nc4c(OCC)c(-c5c(C)ccc6[nH]ncc56)c(C=C)cc34)CC2)C1 [Ex 24] | 21 | – | inhibition at 40 mg/kg (pERK in NCI-H1373 tumor; Mus musculus, NCI-H1373, po, 6 h, Oral administration, 40 mg/kg, tumor six hours after administration): 72%
8 | C=CC(=O)N1CC2(CCN(c3nc(OC4CCN(CCOC)CC4)nc4c(OCC(F)(F)F)c(-c5c(C)ccc6[nH]ncc56)c(C5CC5)cc34)CC2)C1 [Ex 25] | 48 | 66 | –
9 | C=CC(=O)N1CC2(CCN(c3nc(OC4CCN(CCOC)CC4)nc4c(OCC(F)(F)F)c(-c5c(C)ccc6[nH]ncc56)c(C=C)cc34)CC2)C1 [Ex 26] | 41 | 50 | –
10 | C=CC(=O)N1CC2(CCN(c3nc(OC4CCN(CCCOC)CC4)nc4c(OCC(F)(F)F)c(-c5c(C)ccc6[nH]ncc56)c(C5CC5)cc34)CC2)C1 [Ex 28] | 38 | 46 | –
11 | C=CC(=O)N1CC2(CCN(c3nc(OC4CCN(C5CCOCC5)CC4)nc4c(OCC(F)(F)F)c(-c5c(C)ccc6[nH]ncc56)c(C=C)cc34)CC2)C1 [Ex 30] | 45 | 56 | –
12 | C=CC(=O)N1CC2(CCN(c3nc(OC[C@@H]4CCCN4C)nc4c(OC5CCC5)c(-c5c(C)ccc6[nH]ncc56)c(C=C)cc34)CC2)C1 [Example 15] | 52 | – | inhibition at 3 mg/kg (pERK in NCI-H1373 tumor; [4]): 53%
13 | C=CC(=O)N1CC2(CCN(c3nc(OC[C@@H]4CCCN4C)nc4c(OCC)c(-c5c(C)ccc6[nH]ncc56)c(C=C)cc34)CC2)C1 [Example 16] | 45 | – | inhibition at 3 mg/kg (pERK in NCI-H1373 tumor; [4]): 51%
14 | C=CC(=O)N1CC2(CCN(c3nc(OC4CCN(CCOCC)CC4)nc4c(OCC(F)(F)F)c(-c5c(C)ccc6[nH]ncc56)c(C=C)cc34)CC2)C1 [Example 29] | 49 | 62 | –
15 | C=CC(=O)N1CC2(CCN(c3nc(OC4CCN(CCOC)CC4)nc4c(OCC(F)F)c(-c5c(C)ccc6[nH]ncc56)c(C5CC5)cc34)CC2)C1 [Example 32] | 39 | 55 | –
16 | C=CC(=O)N1CC2(CCN(c3nc(OC4CCN(C5COC5)CC4)nc4c(OCC(F)(F)F)c(-c5c(C)ccc6[nH]ncc56)c(C=C)cc34)CC2)C1 [Example 33] | 44 | 71 | –
17 | C=CC(=O)N1CC2(CCN(c3nc(OC4CCN(C5COC5)CC4)nc4c(OCC)c(-c5c(C)ccc6[nH]ncc56)c(C5CC5)cc34)CC2)C1 [Example 34] | 36 | 54 | –
18 | C=CC(=O)N1CC2(CCN(c3nc(OC4CCN(CCOC)CC4)nc4c(OCC(F)(F)F)c(-c5c(C)ccc6[nH]ncc56)c(C5CC5)cc34)CC2)C1 [Example 35] | 17 | – | pERK inhibition (%) (pERK in NCI-H1373 tumor; [5]): 68%
19 | C=CC(=O)N1CC2(CCN(c3nc(OC4CCN(CCOCC)CC4)nc4c(OCC(F)(F)F)c(-c5c(C)ccc6[nH]ncc56)c(C=C)cc34)CC2)C1 [Example 37] | 17 | – | pERK inhibition (%) (pERK in NCI-H1373 tumor; [5]): 63%
20 | C=CC(=O)N1CC2(CCN(c3nc(OC4CCN(CC(C)(C)O)CC4)nc4c(OCC(F)(F)F)c(-c5c(C)ccc6[nH]ncc56)c(C=C)cc34)CC2)C1 [Example 40] | 15 | – | pERK inhibition (%) (pERK in NCI-H1373 tumor; [5]): 58%
21 | C=CC(=O)N1CC2(CCN(c3nc(N4CCN(C)CC4)nc4c(OCC(F)(F)F)c(-c5c(C)ccc6[nH]ncc56)c(C=C)cc34)CC2)C1 [Example 50] | 50 | 63 | –
22 | C=CC(=O)N1CC2(CCN(c3nc(OC4CCN(C)CC4F)nc4c(OCC(F)(F)F)c(-c5c(C)ccc6[nH]ncc56)c(C=C)cc34)CC2)C1 (stereo not drawn) [Example 52] | 56 | 68 | –
23 | C=CC(=O)N1CC2(CCN(c3nc(OC4CCN(Cc5ccccn5)CC4)nc4c(OCC(F)(F)F)c(-c5c(C)ccc6[nH]ncc56)c(C=C)cc34)CC2)C1 [Example 56] | 63 | 53 | –
24 | C=CC(=O)N1CC2(CCN(c3nc(N4CC(N(C)C)C4)nc4c(OCC(F)(F)F)c(-c5c(C)ccc6[nH]ncc56)c(C=C)cc34)CC2)C1 [Example 65] | 46 | 68 | –
